Measured values: paper PMC12358834, “Structural basis for anaerobic alkane activation by a multisubunit glycyl radical enzyme” (Proceedings of the National Academy of Sciences of the …, 2025)

Experiments:
[1] = biological target: T1, MASS; (1-methylalkyl)succinate synthase; MASSα2βγ2δ complex (Azoarcus sp. HxN1, UniProt A9J4K4); test: cryo-EM structure of the complex, […] Å; assay type: binding; conditions: active site of MASSα (αβγδ side); anaerobic; no alkane present; DTT modelled in hydrocarbon site; no glycyl radical activation described
T1 construct: gene masD; full-length subunits co-expressed in E. coli NiCo21(DE3); N-terminal His tag on MASSα; asymmetric alpha2-beta-gamma2-delta complex; [4Fe-4S] in beta and gamma, single Fe in delta; with (1-methylalkyl)succinate synthase beta subunit; (1-methylalkyl)succinate synthase gamma subunit; (1-methylalkyl)succinate synthase delta subunit (rubredoxin-like)
T1 sequence (A9J4K4 1-839): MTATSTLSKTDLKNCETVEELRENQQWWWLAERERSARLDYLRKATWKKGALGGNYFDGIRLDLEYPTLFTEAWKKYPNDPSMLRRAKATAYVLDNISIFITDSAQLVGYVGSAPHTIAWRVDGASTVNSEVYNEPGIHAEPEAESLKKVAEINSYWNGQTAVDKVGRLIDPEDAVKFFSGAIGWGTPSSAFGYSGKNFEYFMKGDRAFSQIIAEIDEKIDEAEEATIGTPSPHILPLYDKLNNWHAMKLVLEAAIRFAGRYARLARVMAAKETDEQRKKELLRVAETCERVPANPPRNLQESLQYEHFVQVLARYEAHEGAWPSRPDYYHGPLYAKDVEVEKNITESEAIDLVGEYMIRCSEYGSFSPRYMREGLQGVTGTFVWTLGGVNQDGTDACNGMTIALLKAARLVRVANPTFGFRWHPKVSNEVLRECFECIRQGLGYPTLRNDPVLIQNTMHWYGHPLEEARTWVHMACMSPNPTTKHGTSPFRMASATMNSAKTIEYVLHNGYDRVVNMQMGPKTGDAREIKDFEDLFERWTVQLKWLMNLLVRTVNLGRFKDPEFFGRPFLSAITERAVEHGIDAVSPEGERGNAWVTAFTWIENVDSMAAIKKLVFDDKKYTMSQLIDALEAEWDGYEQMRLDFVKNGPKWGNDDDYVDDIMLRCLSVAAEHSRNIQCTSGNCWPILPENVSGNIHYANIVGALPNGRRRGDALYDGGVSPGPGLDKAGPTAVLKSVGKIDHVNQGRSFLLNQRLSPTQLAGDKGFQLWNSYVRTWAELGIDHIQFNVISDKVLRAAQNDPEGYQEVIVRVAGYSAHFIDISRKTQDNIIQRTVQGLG
T1 sequence (A9J4K2 1-61 partner): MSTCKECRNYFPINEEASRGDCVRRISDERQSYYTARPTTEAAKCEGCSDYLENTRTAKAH
T1 sequence (A9J4K0 1-120 partner): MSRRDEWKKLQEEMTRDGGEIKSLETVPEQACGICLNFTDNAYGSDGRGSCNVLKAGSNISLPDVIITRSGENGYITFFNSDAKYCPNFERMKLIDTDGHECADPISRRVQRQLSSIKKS
T1 sequence (A9J4K6 1-71 partner): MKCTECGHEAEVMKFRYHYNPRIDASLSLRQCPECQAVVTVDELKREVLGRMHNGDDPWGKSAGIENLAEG

[2] = biological target: (1-methylalkyl)succinate synthase catalytic α-subunit (MASSα), protein product of masD (Azoarcus sp. strain HxN1); test: cryo-EM structure; single-particle cryo-EM of the co-expressed, purified MASS complex (SEC fractions with dimeric MASSα), grids prepared anaerobically, 0.8 mg/mL, fumarate and DTT bound; 2.8 Å map (a first data set gave 7 Å)

Row | Molecule | cryo-EM structure of the complex, 2.8 Å [1] | stoichiometry N [2]
1 | O=C(O)/C=C/C(=O)O [fumarate] | Density was observed for fumarate in a similar location as was observed for the fumarate | –
2 | (1-methylalkyl)succinate synthase catalytic α-subunit (MASSα), protein product of masD (enzyme) | – | 2
